Measurements taken from US5098930A, “Heterocyclic derivatives” (Imperial Chemical Industries PLC, priority 1988, dated 1992).

Assays:
5-LO [1] = target: T1, 5-LO (Rattus norvegicus, UniProt P12527); test: test c) ex vivo assay, oral administration, blood collection, A23187 challenge, radioimmunoassay of LTB4; format: in vivo
T1 construct: blood collection, heparinisation, challenge with A23187 and radioimmunoassay of LTB4 and TxB2; endogenous in cells
T1 sequence (P12527 1-673): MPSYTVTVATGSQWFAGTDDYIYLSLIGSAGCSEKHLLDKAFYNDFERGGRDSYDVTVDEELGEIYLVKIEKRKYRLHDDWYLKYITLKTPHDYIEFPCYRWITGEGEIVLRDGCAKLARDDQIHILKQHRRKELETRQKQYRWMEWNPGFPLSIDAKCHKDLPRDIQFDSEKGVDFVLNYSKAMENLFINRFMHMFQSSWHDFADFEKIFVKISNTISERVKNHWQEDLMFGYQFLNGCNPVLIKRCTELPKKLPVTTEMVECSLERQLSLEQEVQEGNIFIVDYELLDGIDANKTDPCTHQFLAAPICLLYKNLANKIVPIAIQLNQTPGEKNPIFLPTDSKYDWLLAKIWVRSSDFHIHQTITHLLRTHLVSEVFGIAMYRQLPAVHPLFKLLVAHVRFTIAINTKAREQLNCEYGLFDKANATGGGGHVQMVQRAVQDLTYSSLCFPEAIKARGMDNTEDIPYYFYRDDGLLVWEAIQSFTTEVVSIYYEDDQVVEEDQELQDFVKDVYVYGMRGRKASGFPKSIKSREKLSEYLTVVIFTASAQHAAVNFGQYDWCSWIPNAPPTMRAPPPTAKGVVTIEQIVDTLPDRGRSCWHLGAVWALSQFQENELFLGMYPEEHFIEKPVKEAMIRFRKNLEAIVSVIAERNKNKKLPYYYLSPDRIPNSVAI
Procedure: c) An ex vivo assay system, which is a variation of test b) above, involving administration of a test compound (usually orally as the suspension produced when a solution of the test compound in dimethylsulphoxide is added to carboxymethylcellulose), blood collection, heparinisation, challenge with A23187 and radioimmunoassay of LTB4 and TxB2. This test provides an indication of the bioavailability of a test compound as an inhibitor of 5-LO or cyclooxygenase.

5-LO [2] = target: T2, 5-LO (Homo sapiens, UniProt P09917); test: test b) in vitro heparinised human blood, A23187 challenge, LTB4 radioimmunoassay; format: cell-based
T2 construct: incubating a test compound with heparinised human blood; endogenous in cells; host or cells: blood cells in heparinised human blood
T2 sequence (P09917 1-674): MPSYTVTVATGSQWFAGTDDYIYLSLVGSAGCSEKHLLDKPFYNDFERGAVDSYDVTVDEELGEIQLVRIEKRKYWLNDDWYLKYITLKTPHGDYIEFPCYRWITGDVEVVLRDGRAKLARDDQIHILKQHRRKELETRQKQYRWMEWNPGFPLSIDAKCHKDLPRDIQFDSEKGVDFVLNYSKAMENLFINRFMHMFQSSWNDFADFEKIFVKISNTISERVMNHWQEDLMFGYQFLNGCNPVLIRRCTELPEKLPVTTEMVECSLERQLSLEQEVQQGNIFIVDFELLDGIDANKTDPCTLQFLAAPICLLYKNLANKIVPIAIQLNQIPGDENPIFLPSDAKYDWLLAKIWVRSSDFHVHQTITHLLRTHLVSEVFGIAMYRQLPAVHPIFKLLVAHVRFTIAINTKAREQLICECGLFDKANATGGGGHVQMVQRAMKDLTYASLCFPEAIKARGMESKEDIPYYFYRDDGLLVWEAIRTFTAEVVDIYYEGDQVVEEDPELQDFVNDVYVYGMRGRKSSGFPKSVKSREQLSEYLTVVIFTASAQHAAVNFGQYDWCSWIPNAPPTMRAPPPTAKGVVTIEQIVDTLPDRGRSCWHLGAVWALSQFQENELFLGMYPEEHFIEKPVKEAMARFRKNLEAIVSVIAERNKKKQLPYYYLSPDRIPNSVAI
Procedure: b) An in vitro assay system involving incubating a test compound with heparinised human blood, prior to challenge with the calcium ionophore A23187 and then indirectly measuring the inhibitory effects on 5-LO by assaying the amount of LTB4 using the specific radioimmunoassay described by Carey and Forder (F. Carey and R. A. Forder, Brit. […] This test provides an indication of the effects of a test compound against 5-LO and also cyclooxygenase in the presence of blood cells and proteins. It permits the selectivity of the inhibitory effect on 5-LO or cyclooxygenase to be assessed.

cyclooxygenase = target: T3, cyclooxygenase (Homo sapiens, UniProt P23219); test: test b) in vitro heparinised human blood, A23187 challenge, TxB2 radioimmunoassay; format: cell-based
T3 construct: incubating a test compound with heparinised human blood; endogenous in cells; host or cells: blood cells (platelets by own knowledge) in heparinised human blood
Procedure: As stated previously, the heterocyclic derivatives of the formula I are inhibitors of the enzyme 5-LO.
b) An in vitro assay system involving incubating a test compound with heparinised human blood, prior to challenge with the calcium ionophore A23187 and then indirectly measuring the inhibitory effects on 5-LO by assaying the amount of LTB4 using the specific radioimmunoassay described by Carey and Forder (F. Carey and R. A. Forder, Brit. J. Pharmacol. 1985, 84, 34P) which involves the use of a protein-LTB4 conjugate produced using the procedure of Young et alia (Prostaglandins, 1983, 26(4), 605-613). The effects of a test compound on the enzyme cyclooxygenase (which is involved in the alternative metabolic pathway for arachidonic acid and gives rise to prostaglandins, thromboxanes and related metabolites) may be measured at the same time using the specific radioimmunoassay for thromboxane B2 (TxB2) described by Carey and Forder (see above). This test provides an indication of the effects of a test compound against 5-LO and also cyclooxygenase in the presence of blood cells and proteins. It permits the selectivity of the inhibitory effect on 5-LO or cyclooxygenase to be assessed.

T3 sequence (P23219 24-599): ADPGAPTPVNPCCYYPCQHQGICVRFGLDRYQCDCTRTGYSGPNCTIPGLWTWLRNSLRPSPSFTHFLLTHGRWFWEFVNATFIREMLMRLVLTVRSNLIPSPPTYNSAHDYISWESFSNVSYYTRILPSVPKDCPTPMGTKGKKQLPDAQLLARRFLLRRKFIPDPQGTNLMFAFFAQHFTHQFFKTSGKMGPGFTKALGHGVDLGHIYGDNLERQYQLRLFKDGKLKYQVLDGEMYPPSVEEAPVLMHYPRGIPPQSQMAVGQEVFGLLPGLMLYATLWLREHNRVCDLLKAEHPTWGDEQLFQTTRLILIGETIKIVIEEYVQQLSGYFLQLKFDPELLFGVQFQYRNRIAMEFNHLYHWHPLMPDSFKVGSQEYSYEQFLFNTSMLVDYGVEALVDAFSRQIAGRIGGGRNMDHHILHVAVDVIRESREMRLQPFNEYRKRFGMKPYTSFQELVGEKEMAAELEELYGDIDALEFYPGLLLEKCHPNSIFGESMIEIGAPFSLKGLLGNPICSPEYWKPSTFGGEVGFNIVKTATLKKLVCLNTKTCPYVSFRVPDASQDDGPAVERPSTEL

ED50 (5-LO [1]): 5 mg/kg
IC50 (5-LO [2]): 100 nM
IC50 (cyclooxygenase): > 40000 nM
Compound: COC1(c2cccc(OCc3ccc4ccccc4c3)c2)CCOCC1 [4-methoxy-4-[3-(naphth-2-ylmethoxy)phenyl]tetrahydropyran]
